The target of assay [1] is FBXL10 (Homo sapiens (Human), UniProt Q8NHM5). The experiment in a line: FBXL10 in vitro enzyme inhibition assay (AlphaScreen). It counts as biochemical. The procedure: Reaction product was determined quantitatively by AlphaScreen detection after the addition of detection reagents anti-H3K36me1 antibody, AlphaScreen® Streptavidin-coated Donor beads, and AlphaScreen® Protein A Acceptor beads in 50 mM HEPES, pH7.3, 10 mM NaCl, 0.005% Brij35, 5 mM EDTA, 2 mg/ml BSA to final 10 μg/ml beads.
Plates were incubated at room temperature for 40 minutes, followed by addition of 3 μl of 50 μg/ml AlphaScreen® Streptavidin-coated Donor beads and AlphaScreen® Protein A Acceptor beads in 50 mM HEPES, pH7.3, 10 mM NaCl, 0.005% Brij35, 5 mM EDTA, 2 mg/ml BSA. Plates were read by EnVisionMultilabel Reader in AlphaScreen mode after a minimum of 2 hour or up to overnight incubation at room temperature. The AlphaScreen signal for each well was used to determine inhibition constant (IC50).

The target in assay [2] is JMJD2C (Homo sapiens (Human), UniProt Q9H3R0). The experiment in a line: JMJD2C in vitro enzyme inhibition assay (TR-FRET). It counts as biochemical. On the technique in general: In TR-FRET formats the signal depends on donor and acceptor labels being close together.
Protocol: This assay determines the ability of a test compound to inhibit Jarid1A, Jarid1B, JMJD2C, and JMJD2A demethylase activity. […] Baculovirus expressed JMJD2C (GenBank Accession #BC143571, AA 2-372) was purchased from BPS Bioscience (Cat#50105).
The ability of test compounds to inhibit the activity of JMJD2C was determined in 384-well plate format under the following reaction conditions: 0.3 nM JMJD2C, 300 nM H3K9me3-biotin labeled peptide (Anaspec cat #64360), 2 μM alpha-ketoglutaric acid in assay buffer of 50 mM HEPES, pH7.3, 0.005% Brij35, 0.5 mM TCEP, 0.2 mg/ml BSA, 50 μM sodium L-ascorbate, and 2 μM ammonium iron(II) sulfate. Reaction product was determined quantitatively by TR-FRET after the addition of detection reagent Phycolink Streptavidin-allophycocyanin (Prozyme) and Europium-anti-di-methylated histone H3 lysine 9 (H3K9me2) antibody (PerkinElmer) in the presence of 5 mM EDTA in LANCE detection buffer (PerkinElmer) at a final concentration of 50 nM and 1 nM, respectively.
The assay reaction was initiated by the following: 2 μl of the mixture of 900 nM H3K9me3-biotin labeled peptide and 6 μM alpha-ketoglutaric acid with 2 μl of 11-point serial diluted inhibitor in 3% DMSO were added to each well of the plate, followed by the addition of 2 μl of 0.9 nM JMJD2C to initiate the reaction. The reaction mixture was incubated at room temperature for 30 minutes, and terminated by the addition of 6 μl of 5 mM EDTA in LANCE detection buffer containing 100 nM Phycolink Streptavidin-allophycocyanin and 2 nM Europium-anti-H3K9me2 antibody. Plates were read by EnVisionMultilabel Reader in TR-FRET mode (excitation at 320 nm, emission at 615 nm and 665 nm) after 1 hour incubation at room temperature. A ratio was calculated (665/615) for each well and fitted to determine inhibition constant (IC50).

This is an account of results in patent US10273222B2 (CELGENE QUANTICEL RESEARCH, INC., priority 2013, dated 2019).

JMJD2C, sequence (Q9H3R0 2-372): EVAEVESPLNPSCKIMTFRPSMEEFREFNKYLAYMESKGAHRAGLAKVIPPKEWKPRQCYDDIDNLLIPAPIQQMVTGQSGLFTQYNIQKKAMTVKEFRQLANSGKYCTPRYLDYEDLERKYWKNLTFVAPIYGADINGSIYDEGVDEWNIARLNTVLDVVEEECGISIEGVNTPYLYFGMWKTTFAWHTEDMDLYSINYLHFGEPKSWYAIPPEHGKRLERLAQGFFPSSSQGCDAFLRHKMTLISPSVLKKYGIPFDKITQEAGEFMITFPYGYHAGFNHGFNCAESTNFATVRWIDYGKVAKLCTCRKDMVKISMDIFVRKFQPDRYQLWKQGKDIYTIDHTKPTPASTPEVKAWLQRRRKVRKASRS
FBXL10, sequence (Q8NHM5 1-650): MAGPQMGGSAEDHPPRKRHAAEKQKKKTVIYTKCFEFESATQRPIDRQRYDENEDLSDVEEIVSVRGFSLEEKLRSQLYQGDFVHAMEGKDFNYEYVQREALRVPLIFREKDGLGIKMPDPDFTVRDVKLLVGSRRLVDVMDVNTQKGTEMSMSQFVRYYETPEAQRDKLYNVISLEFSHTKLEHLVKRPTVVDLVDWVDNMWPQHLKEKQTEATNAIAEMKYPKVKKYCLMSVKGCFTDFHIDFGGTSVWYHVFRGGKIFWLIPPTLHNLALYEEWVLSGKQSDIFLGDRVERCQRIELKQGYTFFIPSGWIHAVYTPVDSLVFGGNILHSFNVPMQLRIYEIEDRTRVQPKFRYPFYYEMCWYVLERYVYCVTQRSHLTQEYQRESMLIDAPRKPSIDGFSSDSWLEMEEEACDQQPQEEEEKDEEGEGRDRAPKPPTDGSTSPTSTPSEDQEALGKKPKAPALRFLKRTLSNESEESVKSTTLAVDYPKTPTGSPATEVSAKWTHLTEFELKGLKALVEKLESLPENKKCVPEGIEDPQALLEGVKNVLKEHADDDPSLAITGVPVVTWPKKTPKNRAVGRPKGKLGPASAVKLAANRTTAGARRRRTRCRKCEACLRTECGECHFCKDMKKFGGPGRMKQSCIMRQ

A word on the IC50: it is the concentration that inhibits the measured activity by half. As for `Cn1cnc(-c2cc(-c3nn[nH]n3)ccn2)c1-c1ccc(F)c(C(=O)NCc2ccccc2)c1` [Example 65, N-benzyl-2-fluoro-5-[3-methyl-5-[4-(2H-tetrazol-5-yl)pyridin-2-yl]imidazol-4-yl]benzamide], the IC50 in assay [1] is no more than 100 nM; in assay [2], 1000 to 10000 nM.
For `O=C(O)c1ccnc(-c2cn(Cc3cccc(C(F)(F)F)c3)cn2)c1` [Example 117, 2-[1-[[3-(trifluoromethyl)phenyl]methyl]imidazol-4-yl]pyridine-4-carboxylic acid] the same measures were no more than 100 nM and 100 to 1000 nM.
The like results for `Cn1cnc(-c2cc(C(=O)O)ccn2)c1-c1cc(F)c(F)cc1OCC1CC1` [Example 121, 2-[5-[2-(cyclopropylmethoxy)-4,5-difluorophenyl]-1-methylimidazol-4-yl]pyridine-4-carboxylic acid] were, in that order, no more than 100 nM and 1000 to 10000 nM.
Regarding `Cn1cnc(-c2cc(C(=O)O)ccn2)c1-c1c(F)cccc1OCC1CC1` [Example 122, 2-[5-[2-(cyclopropylmethoxy)-6-fluorophenyl]-1-methylimidazol-4-yl]pyridine-4-carboxylic acid], the IC50 in assay [1] was no more than 100 nM; in assay [2] it was 1000 to 10000 nM.
The like results for `Cc1ccc(OCC2CC2)c(-c2c(-c3cc(C(=O)O)ccn3)ncn2C)c1` [Example 123, 2-[5-[2-(cyclopropylmethoxy)-5-methylphenyl]-1-methylimidazol-4-yl]pyridine-4-carboxylic acid] were, in that order, 100 to 1000 nM and 1000 to 10000 nM.
As to `O=C(O)c1ccnc(-c2ncn(CCc3ccccc3Cl)c2-c2ccc(F)cc2)c1` [Example 124, 2-[1-[2-(2-chlorophenyl)ethyl]-5-(4-fluorophenyl)imidazol-4-yl]pyridine-4-carboxylic acid], the results for the IC50 in assay [1] and in assay [2] were no more than 100 nM and 100 to 1000 nM, respectively.
For `O=C(O)c1ccnc(-c2ncn(CC3CC3)c2-c2ccc(F)cc2)c1` [Example 125, 2-[1-(cyclopropylmethyl)-5-(4-fluorophenyl)imidazol-4-yl]pyridine-4-carboxylic acid] the same measures were no more than 100 nM and 100 to 1000 nM.
The like results for `O=C(O)c1ccnc(-c2ncn(CC3CC3)c2-c2ccc(Cl)cc2)c1` [Example 126, 2-[5-(4-chlorophenyl)-1-(cyclopropylmethyl)imidazol-4-yl]pyridine-4-carboxylic acid] were, in that order, no more than 100 nM and 1000 to 10000 nM.
For `O=C(O)c1ccnc(-c2ncn(Cc3ccccc3Cl)c2-c2ccc(F)cc2)c1` [Example 127, 2-[1-[(2-chlorophenyl)methyl]-5-(4-fluorophenyl)imidazol-4-yl]pyridine-4-carboxylic acid] the same measures were no more than 100 nM and 1000 to 10000 nM.
`CCOc1ccccc1CCn1cnc(-c2cc(-c3nn[nH]n3)ccn2)c1` [Example 128, 2-[1-[2-(2-ethoxyphenyl)ethyl]imidazol-4-yl]-4-(2H-tetrazol-5-yl)pyridine]: the IC50 in assay [1] is no more than 100 nM; in assay [2], 1000 to 10000 nM.
The like results for `Clc1cccc(Cn2cnc(-c3cc(-c4nn[nH]n4)ccn3)c2)c1` [Example 130, 2-[1-[(3-chlorophenyl)methyl]imidazol-4-yl]-4-(2H-tetrazol-5-yl)pyridine] were, in that order, no more than 100 nM and 1000 to 10000 nM.
On to `Clc1ccc(Cn2cnc(-c3cc(-c4nn[nH]n4)ccn3)c2)cc1` [Example 131, 2-[1-[(4-chlorophenyl)methyl]imidazol-4-yl]-4-(2H-tetrazol-5-yl)pyridine], for which the IC50 was no more than 100 nM in assay [1] and 1000 to 10000 nM in assay [2].
The like results for `Fc1ccc(-c2c(-c3cc(-c4nn[nH]n4)ccn3)ncn2CCc2ccccc2Cl)cc1` [Example 132, 2-[1-[2-(2-chlorophenyl)ethyl]-5-(4-fluorophenyl)imidazol-4-yl]-4-(2H-tetrazol-5-yl)pyridine] were, in that order, no more than 100 nM and 1000 to 10000 nM.
Turning to `Clc1ccc(-c2c(-c3cc(-c4nn[nH]n4)ccn3)ncn2CCc2ccccc2Cl)cc1` [Example 133, 2-[5-(4-chlorophenyl)-1-[2-(2-chlorophenyl)ethyl]imidazol-4-yl]-4-(2H-tetrazol-5-yl)pyridine], the IC50 in assay [1] fell in the range of 100 to 1000 nM; in assay [2] it was 1000 to 10000 nM.
The like results for `Fc1ccc(-c2c(-c3cc(-c4nn[nH]n4)ccn3)ncn2CC(F)(F)F)cc1` [Example 134, 2-[5-(4-fluorophenyl)-1-(2,2,2-trifluoroethyl)imidazol-4-yl]-4-(2H-tetrazol-5-yl)pyridine] were, in that order, no more than 100 nM and 1000 to 10000 nM.
For `Fc1ccc(-c2c(-c3cc(-c4nn[nH]n4)ccn3)ncn2CC2CC2)cc1` [Example 135, 2-[1-(cyclopropylmethyl)-5-(4-fluorophenyl)imidazol-4-yl]-4-(2H-tetrazol-5-yl)pyridine] the same measures were no more than 100 nM and 1000 to 10000 nM.
For `Clc1ccc(-c2c(-c3cc(-c4nn[nH]n4)ccn3)ncn2CC2CC2)cc1` [Example 136, 2-[5-(4-chlorophenyl)-1-(cyclopropylmethyl)imidazol-4-yl]-4-(2H-tetrazol-5-yl)pyridine] the same measures were no more than 100 nM and 1000 to 10000 nM.
Take `Fc1ccc(-c2c(-c3cc(-c4nn[nH]n4)ccn3)ncn2Cc2ccccc2Cl)cc1` [Example 137, 2-[1-[(2-chlorophenyl)methyl]-5-(4-fluorophenyl)imidazol-4-yl]-4-(2H-tetrazol-5-yl)pyridine]: the IC50 is no more than 100 nM in assay [1] and 1000 to 10000 nM in assay [2].
With `CC(=O)OCn1nnc(-c2ccnc(-c3ncn(Cc4ccccc4Cl)c3-c3ccc(F)cc3)c2)n1` [Example 138, [5-[2-[1-[(2-chlorophenyl)methyl]-5-(4-fluorophenyl)imidazol-4-yl]pyridin-4-yl]tetrazol-2-yl]methyl acetate], the IC50 in assay [1] and in assay [2] was 1000 to 10000 nM throughout.
`CC(C)(C)C(=O)OCn1nnc(-c2ccnc(-c3ncn(Cc4ccccc4Cl)c3-c3ccc(F)cc3)c2)n1` [Example 139, [5-[2-[1-[(2-chlorophenyl)methyl]-5-(4-fluorophenyl)imidazol-4-yl]pyridin-4-yl]tetrazol-2-yl]methyl 2,2-dimethylpropanoate]: the IC50 in assay [1] and in assay [2] was 1000 to 10000 nM throughout.
As for `c1ccc2c(c1)CCC(Cn1cnc(-c3cc(-c4nn[nH]n4)ccn3)c1)C2` (stereo not shown) [Example 146, 2-[1-(1,2,3,4-tetrahydronaphthalen-2-ylmethyl)imidazol-4-yl]-4-(2H-tetrazol-5-yl)pyridine], the IC50 in assay [1] is no more than 100 nM; in assay [2], 1000 to 10000 nM.
For `c1ccc2c(c1)CC(Cn1cnc(-c3cc(-c4nn[nH]n4)ccn3)c1)C2` [Example 147, 2-[1-(2,3-dihydro-1H-inden-2-ylmethyl)imidazol-4-yl]-4-(2H-tetrazol-5-yl)pyridine] the same measures were no more than 100 nM and 1000 to 10000 nM.
The like results for `Cn1cnc(-c2cc(-c3nn[nH]n3)ccn2)c1-c1ccc(F)cc1OCc1ccccc1` [Example 148, 2-[5-(4-fluoro-2-phenylmethoxyphenyl)-1-methylimidazol-4-yl]-4-(2H-tetrazol-5-yl)pyridine] were, in that order, no more than 100 nM and 1000 to 10000 nM.
The like results for `CCCCOc1cc(F)ccc1-c1c(-c2cc(-c3nn[nH]n3)ccn2)ncn1C` [Example 149, 2-[5-(2-butoxy-4-fluorophenyl)-1-methylimidazol-4-yl]-4-(2H-tetrazol-5-yl)pyridine] were, in that order, no more than 100 nM and 1000 to 10000 nM.
As for `Clc1cccc(Cl)c1Cn1cnc(-c2cc(-c3nn[nH]n3)ccn2)c1` [Example 151, 2-[1-[(2,6-dichlorophenyl)methyl]imidazol-4-yl]-4-(2H-tetrazol-5-yl)pyridine], the IC50 is no more than 100 nM in assay [1] and 1000 to 10000 nM in assay [2].
For `FC(F)(F)COc1ccccc1Cn1cnc(-c2cc(-c3nn[nH]n3)ccn2)c1` [Example 152, 4-(2H-tetrazol-5-yl)-2-[1-[[2-(2,2,2-trifluoroethoxy)phenyl]methyl]imidazol-4-yl]pyridine] the same measures were no more than 100 nM and 1000 to 10000 nM.
The like results for `CC(C)COc1ccccc1Cn1cnc(-c2cc(-c3nn[nH]n3)ccn2)c1` [Example 153, 2-[1-[[2-(2-methylpropoxy)phenyl]methyl]imidazol-4-yl]-4-(2H-tetrazol-5-yl)pyridine] were, in that order, 100 to 1000 nM and 1000 to 10000 nM.
The like results for `c1ccc2c(Cn3cnc(-c4cc(-c5nn[nH]n5)ccn4)c3)cccc2c1` [Example 155, 2-[1-(naphthalen-1-ylmethyl)imidazol-4-yl]-4-(2H-tetrazol-5-yl)pyridine] were, in that order, no more than 100 nM and 1000 to 10000 nM.
On to `FC(F)(F)Oc1ccccc1Cn1cnc(-c2cc(-c3nn[nH]n3)ccn2)c1` [Example 156, 4-(2H-tetrazol-5-yl)-2-[1-[[2-(trifluoromethoxy)phenyl]methyl]imidazol-4-yl]pyridine], for which the IC50 in assay [1] was no more than 100 nM; in assay [2], 1000 to 10000 nM.
For `CC(c1ccccc1Cl)n1cnc(-c2cc(-c3nn[nH]n3)ccn2)c1` (stereo not shown) [Example 157, 2-[1-[1-(2-chlorophenyl)ethyl]imidazol-4-yl]-4-(2H-tetrazol-5-yl)pyridine] the same measures were no more than 100 nM and 1000 to 10000 nM.
In assay [1], `Cn1cnc(-c2cc(-c3nn[nH]n3)ccn2)c1-c1ccc(Cl)c(OCc2ccccc2)c1` [Example 161, 2-[5-(4-chloro-3-phenylmethoxyphenyl)-1-methylimidazol-4-yl]-4-(2H-tetrazol-5-yl)pyridi] came in with an IC50 of no more than 100 nM.
